Data from patent US6147100A, “Pyrrolidine derivatives having phospholipase A2 inhibitory activity” (Shionogi & Co., Ltd., priority 1997, dated 2000).
pIC50: −log10 of the molar value.

Legend:
[1] = test system: production of prostaglandin E2 by human fibroblasts; assay: Inhibition of Production of Prostaglandin E2 in Human Fibroblasts (IL-1 stimulation); assay type: cell-based; settings: Fibroblast; human fibroblasts under stimulation with IL-1
Summary of the method: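 Human fibroblasts stimulated with IL-1, with prostaglandin E2 production measured in the presence of compound as a cellular read-out of cPLA2 inhibition.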

cPLA2 = biological target: T1, cPLA2 (Homo sapiens, UniProt P47712); assay: cPLA2 Inhibitory Activity; assay type: biochemical; settings: 1-palmitoyl-2-[14C]-arachidonoyl-sn-glycero-3-phosphocholine 2.5 μM, sn-1,2-dioleoylglycerol 1.25 μM; pH 7.5, 15 min at 37° C.
T1 sequence (P47712 1-749): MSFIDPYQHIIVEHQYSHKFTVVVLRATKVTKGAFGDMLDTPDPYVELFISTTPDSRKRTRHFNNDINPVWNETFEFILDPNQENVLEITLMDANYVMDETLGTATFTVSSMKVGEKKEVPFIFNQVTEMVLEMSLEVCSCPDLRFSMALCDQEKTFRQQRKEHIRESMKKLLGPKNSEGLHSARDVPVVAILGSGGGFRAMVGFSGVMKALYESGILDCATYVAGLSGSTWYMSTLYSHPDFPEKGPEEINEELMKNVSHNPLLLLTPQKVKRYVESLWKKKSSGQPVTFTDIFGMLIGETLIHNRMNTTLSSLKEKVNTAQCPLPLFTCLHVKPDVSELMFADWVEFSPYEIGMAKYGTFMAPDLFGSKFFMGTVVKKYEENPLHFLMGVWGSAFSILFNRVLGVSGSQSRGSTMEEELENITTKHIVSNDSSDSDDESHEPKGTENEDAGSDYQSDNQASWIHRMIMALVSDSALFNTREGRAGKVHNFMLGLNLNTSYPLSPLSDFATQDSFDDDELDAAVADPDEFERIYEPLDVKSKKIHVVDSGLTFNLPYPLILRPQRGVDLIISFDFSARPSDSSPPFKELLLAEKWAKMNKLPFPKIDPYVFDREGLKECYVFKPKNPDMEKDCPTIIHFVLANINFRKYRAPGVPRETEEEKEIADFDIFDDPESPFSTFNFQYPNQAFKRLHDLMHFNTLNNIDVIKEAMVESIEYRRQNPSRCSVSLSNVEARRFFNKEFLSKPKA
Summary of the method: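 Radiometric assay in 50 mM HEPES pH 7.5 with 1 mM CaCl2, 150 mM NaCl, 0.1 mg/ml BSA and 1.7 mM DTT; compound and substrate added, reaction started with enzyme, 15 min at 37° C. Released fatty acids extracted (Dole method), counted by liquid scintillation versus no-compound control.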

Row | Compound | pIC50 (cPLA2) | pIC50 [1]
1 | O=C1NC(=O)/C(=C/c2ccc(C(=O)NC[C@@H]3C[C@@H](Cc4ccccc4-c4ccccc4)CN3C(=O)c3ccccc3C(=O)c3ccc(F)cc3)cc2)S1 [Compound O-1] | 6.70 | 6.12
2 | O=C1NC(=O)/C(=C/c2ccc(C(=O)NC[C@@H]3C[C@H](SCc4ccccc4-c4ccccc4)CN3C(=O)c3ccccc3C(=O)c3ccc(F)cc3)cc2)S1 [Compound I-1] | 7.00 | 6.59
3 | O=C1NC(=O)/C(=C/c2ccc(C(=O)NC[C@@H]3C[C@@H](OCc4ccccc4-c4ccccc4)CN3C(=O)c3cccc4c3C(=O)c3ccccc3-4)cc2)S1 [Compound A-26] | 6.00 | 6.77
4 | O=C1NC(=O)/C(=C/c2ccc(C(=O)NC[C@@H]3C[C@@H](OCc4ccccc4-c4ccccc4)CN3C(=O)c3ccccc3C(=O)c3ccsc3)cc2)S1 [Compound A-18] | 5.92 | 6.42
5 | O=C1NC(=O)/C(=C/c2ccc(COC[C@@H]3C[C@@H](OCc4ccccc4-c4ccccc4)CN3C(=O)c3ccccc3C(=O)c3ccc(F)cc3)cc2)S1 [Compound C-1] | 6.46 | 5.64
6 | O=C1NC(=O)/C(=C/c2ccc(C(=O)NC[C@H]3C[C@H](OCc4ccccc4-c4ccccc4)CN3C(=O)c3ccccc3C(=O)c3ccc(F)cc3)cc2)S1 [Compound Q-5] | 5.72 | 5.89
7 | O=C1NC(=S)S/C1=C\c1ccc(COC[C@@H]2C[C@@H](OCc3ccccc3-c3ccccc3)CN2C(=O)c2ccccc2C(=O)c2ccc(F)cc2)cc1 [Compound C-2] | 5.96 | 5.66
8 | O=C1NC(=S)S/C1=C\c1ccc(NC(=O)[C@@H]2C[C@@H](SCc3ccccc3-c3ccccc3)CN2C(=O)c2ccccc2C(=O)c2ccc(F)cc2)s1 [Compound J-4] | 6.09 | 5.28
9 | O=C1NC(=O)/C(=C/c2ccc(S(=O)(=O)NC[C@@H]3C[C@@H](SCc4ccccc4-c4ccccc4)CN3C(=O)c3ccccc3C(=O)c3ccc(F)cc3)s2)S1 [Compound I-9] | 6.62 | 5.74
10 | O=C1NC(=S)S/C1=C\c1ccc(/C=C\[C@@H]2C[C@@H](OCc3ccccc3-c3ccccc3)CN2C(=O)c2ccccc2C(=O)c2ccc(F)cc2)s1 [Compound E-5] | 6.12 | 5.46
11 | O=C1NC(=O)/C(=C/c2ccc(C(=O)NC[C@@H]3C[C@@H](OCc4ccccc4-c4ccccc4)CN3C(=O)CCC(=O)c3ccc(F)cc3)cc2)S1 [Compound A-6] | 5.32 | 5.05
12 | Cc1ccc(C(=O)c2ccccc2C(=O)N2C[C@H](OCc3ccccc3-c3ccccc3)C[C@H]2C(=O)Nc2ccc(/C=C3\SC(=S)NC3=O)cc2)cc1 [Compound B-6] | 6.85 | 5.15
13 | O=C1NC(=O)/C(=C/c2ccc(C(=O)NC[C@@H]3C[C@@H](Oc4cccc5ccccc45)CN3C(=O)c3ccccc3C(=O)c3ccc(F)cc3)cc2)S1 [Compound A-73] | 6.96 | 7.00
14 | O=C1NC(=O)/C(=C/c2ccc(C(=O)NC[C@@H]3C[C@@H](OCc4ccccc4-c4ccccc4)CN3C(=O)c3ccccc3C(=O)c3ccc(F)cc3)cc2)S1 [Compound A-16] | 7.10 | 6.59
15 | O=C1NC(=O)/C(=C/c2ccc(NC(=O)[C@@H]3C[C@@H](OCc4ccccc4-c4ccccc4)CN3C(=O)c3ccccc3C(=O)c3ccc(F)cc3)cc2)S1 [Compound B-1] | 6.68 | 4.92
16 | Cc1ccc(C(=O)c2ccccc2C(=O)N2C[C@H](OCc3ccccc3-c3ccccc3)C[C@H]2C(=O)Nc2ccc(/C=C3\SC(=O)NC3=O)cc2)cc1 [Compound B-5] | 6.36 | 5.13
17 | O=C1NC(=O)/C(=C/c2ccc(C(=O)NC[C@@H]3C[C@@H](Oc4ccccc4-c4ccccc4-c4ccccc4)CN3C(=O)c3ccccc3C(=O)c3ccc(F)cc3)cc2)S1 [Compound A-103] | 7.24 | 6.23
18 | O=C1NC(=O)/C(=C/c2ccc(/C=C\C[C@@H]3C[C@@H](OCc4ccccc4-c4ccccc4)CN3C(=O)c3ccccc3C(=O)c3ccc(F)cc3)cc2)S1 [Compound E-12] | 6.46 | 5.24
19 | O=C1NC(=O)/C(=C/c2ccc(C(=O)NC[C@@H]3C[C@@H](N(Cc4ccccc4)Cc4ccccc4)CN3C(=O)c3ccccc3C(=O)c3ccc(F)cc3)cc2)S1 [Compound M-3] | 7.22 | 5.51
20 | O=C1NC(=O)/C(=C/c2ccc(NC(=O)[C@@H]3C[C@@H](OCc4ccccc4-c4ccccc4)CN3C(=O)c3ccccc3C(=O)c3ccc(F)cc3)s2)S1 [Compound B-8] | 6.00 | 5.57
21 | O=C1NC(=S)S/C1=C\c1ccc(S(=O)(=O)NC[C@@H]2C[C@@H](SCc3ccccc3-c3ccccc3)CN2C(=O)c2ccccc2C(=O)c2ccc(F)cc2)cc1 [Compound I-4] | 6.32 | 5.89
22 | O=C1NC(=O)/C(=C/c2ccc(C(=O)NC[C@@H]3C[C@@H](OCc4ccccc4-c4ccccc4)CN3C(=O)c3sccc3C(=O)c3ccccc3)cc2)S1 [Compound A-12] | 5.51 | 7.00
23 | O=C1NC(=O)/C(=C/c2ccc(C(=O)NC[C@@H]3C[C@@H](OCc4ccccc4Cc4ccccc4)CN3C(=O)c3ccccc3C(=O)c3ccc(F)cc3)cc2)S1 [Compound A-32] | 7.17 | 6.24
24 | O=C1NC(=S)S/C1=C\c1ccc(S(=O)(=O)NC[C@@H]2C[C@@H](SCc3ccccc3-c3ccccc3)CN2C(=O)c2ccccc2C(=O)c2ccc(F)cc2)s1 [Compound I-10] | 6.12 | 6.49

Compounds with a higher pIC50 (cPLA2), results first:

Row | pIC50 (cPLA2) | Compound | pIC50 [1]
25 | 7.26 | O=C1NC(=O)/C(=C/c2ccc(C(=O)NC[C@@H]3C[C@@H](CCc4ccccc4-c4ccccc4)CN3C(=O)c3ccccc3C(=O)c3ccc(F)cc3)cc2)S1 [Compound O-3] | 5.96
26 | 7.28 | O=C1NC(=O)/C(=C/c2ccc(C(=O)NC[C@@H]3C[C@@H](Oc4ccccc4Cc4ccccc4)CN3C(=O)c3ccccc3C(=O)c3ccc(F)cc3)cc2)S1 [Compound A-83] | 6.64
27 | 7.28 | CN(Cc1ccccc1)c1ccccc1CO[C@@H]1C[C@@H](CNC(=O)c2ccc(/C=C3\SC(=O)NC3=O)cc2)N(C(=O)c2ccccc2C(=O)c2ccc(F)cc2)C1 [Compound A-43] | 6.25
28 | 7.29 | Cc1ccccc1-c1ccccc1O[C@@H]1C[C@@H](CNC(=O)c2ccc(/C=C3\SC(=O)NC3=O)cc2)N(C(=O)c2ccccc2C(=O)c2ccc(F)cc2)C1 [Compound A-97] | 6.19
29 | 7.30 | CN(c1ccccc1)c1cccc(O[C@@H]2C[C@@H](CNC(=O)c3ccc(/C=C4\SC(=O)NC4=O)cc3)N(C(=O)c3ccccc3C(=O)c3ccc(F)cc3)C2)c1 [Compound A-91] | 6.03
30 | 7.36 | Cc1cccc(-c2ccccc2O[C@@H]2C[C@@H](CNC(=O)c3ccc(/C=C4\SC(=O)NC4=O)cc3)N(C(=O)c3ccccc3C(=O)c3ccc(F)cc3)C2)c1 [Compound A-108] | 6.33
31 | 7.39 | COc1ccccc1-c1ccccc1O[C@@H]1C[C@@H](CNC(=O)c2ccc(/C=C3\SC(=O)NC3=O)cc2)N(C(=O)c2ccccc2C(=O)c2ccc(F)cc2)C1 [Compound A-107] | 5.96
32 | 7.41 | O=C1NC(=O)/C(=C/c2ccc(C(=O)NC[C@@H]3C[C@@H](SCc4ccccc4-c4ccccc4)CN3C(=O)c3ccccc3C(=O)c3ccc(F)cc3)s2)S1 [Compound I-7] | 6.16
33 | 7.42 | CC(C)c1cccc(-c2ccccc2)c1O[C@@H]1C[C@@H](CNC(=O)c2ccc(/C=C3\SC(=O)NC3=O)cc2)N(C(=O)c2ccccc2C(=O)c2ccc(F)cc2)C1 [Compound A-104] | 5.89
34 | 7.44 | O=C1NC(=O)/C(=C/c2ccc(C(=O)NC[C@@H]3C[C@@H](OCc4ccccc4-c4cc5ccccc5o4)CN3C(=O)c3ccccc3C(=O)c3ccc(F)cc3)cc2)S1 [Compound A-40] | 6.21
35 | 7.44 | CC(C)CCN(Cc1ccccc1-c1ccccc1)[C@@H]1C[C@@H](CNC(=O)c2ccc(/C=C3\SC(=O)NC3=O)cc2)N(C(=O)c2ccccc2C(=O)c2ccc(F)cc2)C1 [Compound M-11] | 6.01
36 | 7.54 | COc1cccc(-c2ccccc2C(C)C)c1O[C@@H]1C[C@@H](CNC(=O)c2ccc(/C=C3\SC(=O)NC3=O)cc2)N(C(=O)c2ccccc2C(=O)c2ccc(F)cc2)C1 [Compound A-120] | 6.13
37 | 7.64 | O=C1NC(=S)S/C1=C\c1ccc(NC(=O)[C@@H]2C[C@@H](SCc3ccccc3-c3ccccc3)CN2C(=O)c2ccccc2C(=O)c2ccc(F)cc2)cc1 [Compound J-2] | 6.02
38 | 7.66 | CC(C)CN(Cc1ccccc1-c1ccccc1)[C@@H]1C[C@@H](CNC(=O)c2ccc(/C=C3\SC(=O)NC3=O)cc2)N(C(=O)c2ccccc2C(=O)c2ccc(F)cc2)C1 [Compound M-10] | 6.57
